# System: Adult cane toads (Rhinella marina)
# Test: Cane toad spray trial (formulation sprayed on ventral and/or dorsal surface)
# Format: in vivo
# Conditions: for Mortality Rate / Avg. Time Until Breathing & Heart Beat Not Detected / Avg. Time to Unresponsive: 48 hrs trial
# Protocol: Adult cane toads (Rhinella marina) (>[…] SUL=snout-urostyle length) were collected around Townsville one or two nights prior to the trials. The toads were kept in two Nally bins with all males in one, and all females in the other for ease of sorting. […]
# • 1. The compound and carrier controls were prepared on day of testing. • 2. Toads were weighed, measured and placed in individual buckets and left for 10 minutes to settle. • 3. 1.5 ml of the formulation or carrier or water was delivered to the ventral and/or dorsal surface of each toad via a spray bottle (2×1 ml sprays and accounting for approximately 0.5 ml loss during spraying). • 4. Measurements of toad behaviour and heart rate were recorded at T=5, 10, 15, 20, 25, 30, 45, 60, 75, 90, 105, 120 minutes, plus 4-6 hours, 10-12 hours, 16-18 hours and 24 hours after spraying. If toads were still unconscious but not dead (if there was a heartbeat) within 24 hours, they were checked again at 48 hours. The following measurements were taken at each time interval: • Consciousness: Righting reflex was tested by flipping toads onto their backs and their ability to right themselves was recorded as “fast,” “slow,” or “unresponsive”. Observations were made of the palpebral reflex and involuntary muscular movement: Palpebral reflex was tested by gently tapping the palpebral area with the finger and observing eyelid movement. Involuntary muscular movement was tested via the withdrawal reflex, by grasping each limb distally and extending it. • Breathing/heart rate (did the toad appear to be breathing or was there a detectable heart beat); • Side effects (any other noticeable effects of the formulation such as twitching, distress or agitation, poison gland discharge, muscle rigidness, gasping, or ventral redness).
# Even when no vital signs are detected externally during the experimental process, previous studies have shown that toads may appear dead and still have a heartbeat. At the completion of the trials, all animals were anaesthetised with a lethal dose MS222 (tricaine mesylate) then dissected to determine if the heart was still beating and to look for any signs of internal necrosis.
# [1] = carrier ethanol, 84.2 g/L, 2 sprays ventral + dorsal, 6 toads
# [2] = carrier ethanol, 168.36 g/L, 2 sprays ventral + dorsal, 6 toads
# [3] = carrier isopropanol, 84.2 g/L, 2 sprays ventral + dorsal, 6 toads
# [4] = carrier isopropanol, 126.3 g/L, 2 sprays dorsal, 6 toads
# [5] = carrier isopropanol, 126.3 g/L, 2 sprays dorsal, 24 toads (repeat trial)
# [6] = carrier isopropanol, 140 g/L, 2 sprays dorsal, 22 toads
# [7] = carrier isopropanol, 168.36 g/L, 2 sprays ventral + dorsal, 6 toads
structure (smiles),measurement,setting,value
OCCOc1ccccc1 [2-Phenoxyethanol],Mortality Rate,"carrier ethanol, 21.05 g/L, 2 sprays ventral + dorsal, 6 toads",0%
same,Avg. Time Until Breathing & Heart Beat Not Detected,[1],405 min
same,Avg. Time to Unresponsive,[1],15 min
same,Mortality Rate,[1],100%
same,Avg. Time Until Breathing & Heart Beat Not Detected,[2],20 min
same,Avg. Time to Unresponsive,[2],13.33 min
same,Mortality Rate,[2],100%
same,Avg. Time Until Breathing & Heart Beat Not Detected,[3],40.83 min
same,Avg. Time to Unresponsive,[3],16.67 min
same,Mortality Rate,[3],100%
same,Avg. Time Until Breathing & Heart Beat Not Detected,[4],23 min
same,Avg. Time to Unresponsive,[4],18.3 min
same,Mortality Rate,[4],100%
same,Avg. Time Until Breathing & Heart Beat Not Detected,[5],24.25 min
same,Avg. Time to Unresponsive,[5],18 min
same,Mortality Rate,[5],95.8%
same,Avg. Time Until Breathing & Heart Beat Not Detected,[6],22.05 min
same,Avg. Time to Unresponsive,[6],17.95 min
same,Mortality Rate,[6],100%
same,Avg. Time Until Breathing & Heart Beat Not Detected,[7],14.17 min
same,Avg. Time to Unresponsive,[7],11.67 min
same,Mortality Rate,[7],100%
same,Avg. Time to Unresponsive,"carrier propylene glycol, 168.36 g/L, 2 sprays ventral + dorsal, 6 toads",15.83 min
same,Avg. Time to Unresponsive,"carrier water, 168.36 g/L, 2 sprays ventral + dorsal, 6 toads",14.166 min
same,effectiveness among potential toxicants tested (in different carriers),"compared with benzocaine, sodium nitrite, tricaine mesylate, sodium monesnsin",only real effective candidate
same,effectiveness as toad control,concentration greater than 40 g/L in a carrier of either ethanol or isopropanol,effective control
same,effectiveness as toad control,formulations with water as a carrier,not effective

# From patent US12342818B2, “Formulations and methods for controlling invasive amphibians” (priority 2019, dated 2025)
